From ChEMBL document CHEMBL5465560, “Selectivity Literature for EUbOPEN Chemogenomic Library” (2024) come the findings set out here.

Experiment [1] deals with CDK6/cyclin D1 (Homo sapiens) (UniProt P24385+Q00534). In words: (§1) Selectivity interaction (Rxn Biology Kinase assay) EUB0001632a CDK6. The class given is protein-complex assay. Conditions: at 10 µM.
For experiment [2], the target named is CDK6/cyclin D3 (Homo sapiens) (UniProt P30281+Q00534). The description is as §1. The experiment is classed as protein-complex assay. The following applies: at 10 µM.
For experiment [3], the target named is Tyrosine-protein kinase Fer (Homo sapiens) (UniProt P16591). Briefly: Selectivity interaction (Kinase panel (Z-LYTE Assay)) EUB0001632a FER. Conditions: at 10 µM.
The target of experiment [4] is Serine/threonine-protein kinase Nek7 (Homo sapiens) (UniProt Q8TDX7). In words: Selectivity interaction (KinomeScan (DiscoverX)) EUB0000595a NEK7. The following applies: at 10 µM.
Serine/threonine-protein kinase Nek7 (Homo sapiens), sequence (Q8TDX7 whole entry, looked up): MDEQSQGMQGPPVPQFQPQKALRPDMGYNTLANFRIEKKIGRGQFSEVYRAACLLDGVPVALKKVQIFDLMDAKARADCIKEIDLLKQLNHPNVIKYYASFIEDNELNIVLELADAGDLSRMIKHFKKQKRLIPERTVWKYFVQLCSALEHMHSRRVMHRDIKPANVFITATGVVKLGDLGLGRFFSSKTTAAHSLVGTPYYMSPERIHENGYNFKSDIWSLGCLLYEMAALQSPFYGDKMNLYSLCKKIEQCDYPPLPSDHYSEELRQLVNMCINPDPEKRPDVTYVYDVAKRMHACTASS
In experiment [5] the target is Mitogen-activated protein kinase 9 (Homo sapiens, UniProt P45984). In words: Selectivity interaction (Kinase panel (enzymatic assay)) EUB0000595a MAPK9.
Mitogen-activated protein kinase 9, sequence (P45984 whole entry): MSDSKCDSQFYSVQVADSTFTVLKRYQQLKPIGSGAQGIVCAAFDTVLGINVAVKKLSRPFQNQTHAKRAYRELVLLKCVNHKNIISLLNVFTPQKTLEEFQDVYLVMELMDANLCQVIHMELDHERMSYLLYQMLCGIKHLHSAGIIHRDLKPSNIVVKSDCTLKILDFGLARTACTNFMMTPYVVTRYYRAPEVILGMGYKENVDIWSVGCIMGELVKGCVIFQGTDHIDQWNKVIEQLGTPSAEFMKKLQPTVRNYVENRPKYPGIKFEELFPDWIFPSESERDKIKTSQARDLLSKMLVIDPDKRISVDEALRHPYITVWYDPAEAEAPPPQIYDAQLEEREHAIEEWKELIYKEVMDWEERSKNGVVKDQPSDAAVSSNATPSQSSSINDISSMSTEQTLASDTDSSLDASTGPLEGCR
The target in experiment [6] is Mitogen-activated protein kinase kinase kinase 10 (Homo sapiens) (UniProt Q02779). The following applies: at 10 µM.
The target of experiment [7] is T1, Serine/threonine-protein kinase ULK2 (Homo sapiens) (UniProt Q8IYT8).
T1 sequence (whole entry): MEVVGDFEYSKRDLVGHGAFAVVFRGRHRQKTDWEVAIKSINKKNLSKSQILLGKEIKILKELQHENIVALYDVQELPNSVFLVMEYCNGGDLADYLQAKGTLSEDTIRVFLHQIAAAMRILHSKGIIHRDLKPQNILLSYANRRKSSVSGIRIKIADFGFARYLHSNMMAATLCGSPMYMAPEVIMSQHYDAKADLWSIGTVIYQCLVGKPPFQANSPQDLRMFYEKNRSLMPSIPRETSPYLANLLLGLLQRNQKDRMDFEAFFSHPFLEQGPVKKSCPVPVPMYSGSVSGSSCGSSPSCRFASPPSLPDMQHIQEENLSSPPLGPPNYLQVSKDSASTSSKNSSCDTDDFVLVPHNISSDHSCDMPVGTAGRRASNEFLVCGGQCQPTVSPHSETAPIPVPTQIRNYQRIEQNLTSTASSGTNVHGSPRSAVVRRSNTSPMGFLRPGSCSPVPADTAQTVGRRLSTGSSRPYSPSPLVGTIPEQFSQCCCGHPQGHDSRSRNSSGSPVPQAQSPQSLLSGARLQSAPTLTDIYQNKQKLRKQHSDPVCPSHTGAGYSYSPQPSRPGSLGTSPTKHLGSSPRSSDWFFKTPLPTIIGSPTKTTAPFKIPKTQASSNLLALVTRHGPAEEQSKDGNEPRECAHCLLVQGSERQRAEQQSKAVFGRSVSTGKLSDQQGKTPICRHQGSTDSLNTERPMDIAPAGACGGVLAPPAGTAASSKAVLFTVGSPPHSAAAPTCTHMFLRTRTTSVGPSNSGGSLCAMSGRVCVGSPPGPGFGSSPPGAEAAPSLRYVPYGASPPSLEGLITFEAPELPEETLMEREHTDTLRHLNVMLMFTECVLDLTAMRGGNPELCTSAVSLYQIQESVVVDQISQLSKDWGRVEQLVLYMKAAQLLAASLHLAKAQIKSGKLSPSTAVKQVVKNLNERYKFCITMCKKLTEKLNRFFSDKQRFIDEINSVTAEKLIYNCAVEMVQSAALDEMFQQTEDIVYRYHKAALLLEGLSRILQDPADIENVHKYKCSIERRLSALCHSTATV
Briefly: Selectivity interaction (KinomeScan (DiscoverX)) EUB0000607a ULK2. The following applies: at 10 µM.

The target in experiment [8] is Phosphatidylinositol 4-kinase alpha (Homo sapiens, UniProt P42356). In words: Selectivity interaction (Kinase panel (literature)) EUB0001199aCl PI4KA. Conditions: at 1 µM.
The target in experiment [9] is T2, Activin receptor type-1B (Homo sapiens) (UniProt P36896).
T2 sequence (whole entry): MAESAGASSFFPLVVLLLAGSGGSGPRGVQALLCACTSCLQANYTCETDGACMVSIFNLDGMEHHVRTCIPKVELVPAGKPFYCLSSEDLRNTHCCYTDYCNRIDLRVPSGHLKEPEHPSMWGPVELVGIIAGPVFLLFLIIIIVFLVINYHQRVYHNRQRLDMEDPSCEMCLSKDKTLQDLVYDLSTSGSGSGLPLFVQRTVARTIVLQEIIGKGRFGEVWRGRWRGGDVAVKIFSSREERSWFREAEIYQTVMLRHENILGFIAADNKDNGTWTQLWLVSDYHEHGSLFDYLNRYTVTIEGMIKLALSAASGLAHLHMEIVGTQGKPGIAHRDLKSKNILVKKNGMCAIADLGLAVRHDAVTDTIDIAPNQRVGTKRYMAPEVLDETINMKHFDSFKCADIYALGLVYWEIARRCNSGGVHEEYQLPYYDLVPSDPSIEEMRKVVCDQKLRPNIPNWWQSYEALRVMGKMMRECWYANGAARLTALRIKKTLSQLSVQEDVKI
In words: Selectivity interaction (ProQinase) EUB0000171b ACVR1B.

For experiment [10], the target named is Histone-lysine N-methyltransferase 2A (Homo sapiens) (UniProt Q03164). Briefly: Selectivity interaction (Methyltransferase screen (radiometric assays, panel of 8 PRMTs, 21 protein lysine methyltransferases, 3 DNA methyltransferases, and one RNA methyltransferase)) EUB0000271b MLL.
Histone-lysine N-methyltransferase 2A (Homo sapiens), sequence (Q03164 1-2718 limits assumed): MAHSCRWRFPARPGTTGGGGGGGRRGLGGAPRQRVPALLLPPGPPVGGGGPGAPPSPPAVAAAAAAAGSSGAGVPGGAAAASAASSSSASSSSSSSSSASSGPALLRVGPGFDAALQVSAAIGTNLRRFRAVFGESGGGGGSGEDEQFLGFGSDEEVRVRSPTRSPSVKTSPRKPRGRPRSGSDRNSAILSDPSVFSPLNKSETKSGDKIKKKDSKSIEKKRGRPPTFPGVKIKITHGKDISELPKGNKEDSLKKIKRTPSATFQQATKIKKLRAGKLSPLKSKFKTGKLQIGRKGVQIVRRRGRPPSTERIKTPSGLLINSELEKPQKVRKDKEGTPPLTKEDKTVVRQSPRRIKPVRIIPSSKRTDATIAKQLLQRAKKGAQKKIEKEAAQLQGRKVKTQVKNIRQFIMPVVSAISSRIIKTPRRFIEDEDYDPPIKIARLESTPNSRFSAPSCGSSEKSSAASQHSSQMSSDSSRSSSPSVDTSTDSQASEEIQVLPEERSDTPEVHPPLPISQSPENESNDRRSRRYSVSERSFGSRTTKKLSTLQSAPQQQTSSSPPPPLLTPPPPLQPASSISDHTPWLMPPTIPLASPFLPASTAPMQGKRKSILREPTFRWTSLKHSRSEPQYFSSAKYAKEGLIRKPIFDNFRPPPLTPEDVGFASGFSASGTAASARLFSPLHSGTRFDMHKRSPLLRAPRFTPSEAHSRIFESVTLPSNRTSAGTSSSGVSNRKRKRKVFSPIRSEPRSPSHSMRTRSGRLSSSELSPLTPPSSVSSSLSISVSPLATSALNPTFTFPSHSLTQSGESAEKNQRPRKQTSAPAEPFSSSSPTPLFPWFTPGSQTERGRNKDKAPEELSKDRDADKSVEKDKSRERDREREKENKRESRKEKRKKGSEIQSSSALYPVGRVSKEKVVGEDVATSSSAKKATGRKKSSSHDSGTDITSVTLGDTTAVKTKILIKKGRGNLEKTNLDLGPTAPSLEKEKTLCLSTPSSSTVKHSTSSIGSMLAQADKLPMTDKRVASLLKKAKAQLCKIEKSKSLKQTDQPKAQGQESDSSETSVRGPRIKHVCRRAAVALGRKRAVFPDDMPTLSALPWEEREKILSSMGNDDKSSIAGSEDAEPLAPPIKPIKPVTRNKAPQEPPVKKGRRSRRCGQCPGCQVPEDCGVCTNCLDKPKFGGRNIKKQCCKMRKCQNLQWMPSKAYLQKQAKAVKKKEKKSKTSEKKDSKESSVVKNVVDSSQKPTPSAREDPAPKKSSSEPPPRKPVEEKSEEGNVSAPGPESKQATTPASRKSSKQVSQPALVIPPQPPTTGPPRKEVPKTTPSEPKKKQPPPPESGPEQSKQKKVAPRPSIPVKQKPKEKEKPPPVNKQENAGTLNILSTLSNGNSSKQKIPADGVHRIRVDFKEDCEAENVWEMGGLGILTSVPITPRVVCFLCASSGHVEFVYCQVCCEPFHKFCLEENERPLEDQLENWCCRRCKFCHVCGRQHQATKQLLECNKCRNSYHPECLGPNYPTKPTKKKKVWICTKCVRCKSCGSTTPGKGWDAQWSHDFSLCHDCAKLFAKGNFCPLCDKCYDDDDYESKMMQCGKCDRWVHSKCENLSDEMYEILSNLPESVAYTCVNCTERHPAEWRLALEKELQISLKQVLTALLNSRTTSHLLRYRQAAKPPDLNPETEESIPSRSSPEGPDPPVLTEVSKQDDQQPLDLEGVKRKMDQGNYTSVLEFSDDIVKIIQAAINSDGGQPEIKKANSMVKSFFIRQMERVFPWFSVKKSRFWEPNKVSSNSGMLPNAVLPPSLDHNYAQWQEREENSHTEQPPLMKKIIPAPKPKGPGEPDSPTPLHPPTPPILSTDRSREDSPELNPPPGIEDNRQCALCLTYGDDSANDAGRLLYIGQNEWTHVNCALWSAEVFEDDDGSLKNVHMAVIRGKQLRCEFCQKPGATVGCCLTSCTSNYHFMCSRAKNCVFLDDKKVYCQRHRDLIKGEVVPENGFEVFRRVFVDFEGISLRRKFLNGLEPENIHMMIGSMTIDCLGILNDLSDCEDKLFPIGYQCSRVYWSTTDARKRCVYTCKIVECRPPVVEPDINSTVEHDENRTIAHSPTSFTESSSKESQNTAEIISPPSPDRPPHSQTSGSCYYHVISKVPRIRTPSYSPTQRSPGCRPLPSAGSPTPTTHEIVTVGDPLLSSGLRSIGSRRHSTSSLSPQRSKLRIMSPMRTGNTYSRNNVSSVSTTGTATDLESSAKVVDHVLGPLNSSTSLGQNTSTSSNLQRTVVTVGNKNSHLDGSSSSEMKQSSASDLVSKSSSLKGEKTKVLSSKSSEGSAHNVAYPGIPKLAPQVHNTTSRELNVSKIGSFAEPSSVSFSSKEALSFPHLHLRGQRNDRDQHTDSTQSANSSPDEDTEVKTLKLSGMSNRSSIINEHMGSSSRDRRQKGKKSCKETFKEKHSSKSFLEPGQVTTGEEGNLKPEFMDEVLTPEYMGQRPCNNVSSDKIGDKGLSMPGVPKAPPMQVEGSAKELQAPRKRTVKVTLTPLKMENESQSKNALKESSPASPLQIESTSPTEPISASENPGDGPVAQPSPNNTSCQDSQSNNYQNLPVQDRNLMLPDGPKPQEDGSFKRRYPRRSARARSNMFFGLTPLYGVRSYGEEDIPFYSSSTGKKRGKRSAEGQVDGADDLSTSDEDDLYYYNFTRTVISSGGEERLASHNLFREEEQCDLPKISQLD
Histone-lysine N-methyltransferase 2A (Homo sapiens), sequence (Q03164 2719-3969 limits assumed): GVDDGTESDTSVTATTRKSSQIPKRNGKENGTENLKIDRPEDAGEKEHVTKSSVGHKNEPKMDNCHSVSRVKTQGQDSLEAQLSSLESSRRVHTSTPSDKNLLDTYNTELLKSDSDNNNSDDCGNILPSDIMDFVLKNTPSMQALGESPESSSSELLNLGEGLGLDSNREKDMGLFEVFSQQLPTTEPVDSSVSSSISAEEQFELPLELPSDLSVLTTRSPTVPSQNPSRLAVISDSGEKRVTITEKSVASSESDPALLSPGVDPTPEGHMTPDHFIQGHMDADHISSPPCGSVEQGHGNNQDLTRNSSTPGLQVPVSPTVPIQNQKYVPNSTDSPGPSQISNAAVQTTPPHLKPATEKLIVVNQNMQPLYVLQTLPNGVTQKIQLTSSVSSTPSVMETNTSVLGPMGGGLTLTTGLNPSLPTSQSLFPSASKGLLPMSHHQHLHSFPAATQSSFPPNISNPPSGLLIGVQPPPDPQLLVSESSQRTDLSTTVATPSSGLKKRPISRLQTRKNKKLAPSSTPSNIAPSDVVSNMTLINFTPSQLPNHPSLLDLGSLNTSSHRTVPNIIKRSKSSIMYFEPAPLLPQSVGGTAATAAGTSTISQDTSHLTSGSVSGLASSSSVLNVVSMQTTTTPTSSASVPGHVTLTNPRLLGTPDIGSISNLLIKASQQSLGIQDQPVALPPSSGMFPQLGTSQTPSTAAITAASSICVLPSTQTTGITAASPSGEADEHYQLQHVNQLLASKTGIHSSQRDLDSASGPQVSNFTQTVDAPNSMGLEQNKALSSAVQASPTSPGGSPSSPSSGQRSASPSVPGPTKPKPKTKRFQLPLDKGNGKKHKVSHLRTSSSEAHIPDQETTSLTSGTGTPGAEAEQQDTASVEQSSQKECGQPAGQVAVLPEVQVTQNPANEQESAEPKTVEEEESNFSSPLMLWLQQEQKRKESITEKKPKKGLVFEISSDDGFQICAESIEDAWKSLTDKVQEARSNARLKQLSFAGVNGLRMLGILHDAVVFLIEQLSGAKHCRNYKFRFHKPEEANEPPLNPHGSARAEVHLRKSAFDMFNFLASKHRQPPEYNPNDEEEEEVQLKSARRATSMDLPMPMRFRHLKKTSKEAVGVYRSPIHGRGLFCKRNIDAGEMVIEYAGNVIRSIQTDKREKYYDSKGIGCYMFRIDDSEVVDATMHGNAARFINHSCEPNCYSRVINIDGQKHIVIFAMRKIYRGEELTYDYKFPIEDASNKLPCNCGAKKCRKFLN
The target in experiment [11] is T3, Muscarinic acetylcholine receptor M2 (Homo sapiens) (UniProt P08172).
T3 sequence (whole entry): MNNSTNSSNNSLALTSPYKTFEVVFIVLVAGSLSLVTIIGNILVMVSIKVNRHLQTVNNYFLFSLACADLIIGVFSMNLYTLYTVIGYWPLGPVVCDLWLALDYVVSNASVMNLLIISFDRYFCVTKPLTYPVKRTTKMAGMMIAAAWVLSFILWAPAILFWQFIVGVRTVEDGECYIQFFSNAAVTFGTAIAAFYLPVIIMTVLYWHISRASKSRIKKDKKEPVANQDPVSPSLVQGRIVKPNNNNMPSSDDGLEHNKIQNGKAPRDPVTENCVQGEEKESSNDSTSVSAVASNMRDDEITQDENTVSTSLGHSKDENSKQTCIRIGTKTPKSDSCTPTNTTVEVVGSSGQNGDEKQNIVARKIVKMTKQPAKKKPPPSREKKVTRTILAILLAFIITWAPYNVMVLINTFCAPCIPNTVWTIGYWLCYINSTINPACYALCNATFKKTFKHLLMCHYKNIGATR
Briefly: Selectivity interaction (Panel of kinases, GPCRs, ion channels and transporters (enzymatic assay)) EUB0000266bCl CHRM2.

Each structure is given as a SMILES string.

Broadly, the IC50 is the concentration that inhibits the measured activity by half.

Regarding `Cn1cc(-n2cnc3c(NCc4nc5cc(Cl)c(Cl)cc5[nH]4)nc(N4CCOCC4)nc32)cn1`, the % of inhibition in experiment [1] amounted to 83.4%; in [2], 52.8%. For the same molecule, the % of control in experiment [3] was 3.17%.

As for `COCC(=O)NC/C=C/c1ccc2ncnc(Nc3ccc(Oc4ccc(C)nc4)c(C)c3)c2c1` [CP-724714], in experiment [4], the % of control worked out at 73%. In experiment [5], this molecule registered an IC50 above 10 µM.

In experiment [6], `CCN(CC)CCCCNc1ncc2cc(-c3cc(OC)cc(OC)c3)c(NC(=O)NC(C)(C)C)nc2n1` displayed a % of control of 100%.

`CNC(=O)Nc1ccc(-c2nc(N3CC4CCC(C3)O4)c3cnn(C4CCC5(CC4)OCCO5)c3n2)cc1` registered a % of control in experiment [7] of 90%.

For the molecule `CN1Cc2nccc(-c3cn(C)nc3-c3ccc(F)cc3)c2C1=O`, the % of inhibition in experiment [8] was -13%.

Take `C=CC(=O)Nc1cccc(C(=O)Nc2ccc(Nc3cc(-c4[nH]c(SC)nc4C)ccn3)cc2)c1`: the % of control in experiment [9] (at 1 µM) and in [9] (at 5 µM) was 94% throughout.

As to `Cc1cc(C)cc([C@@H]2c3cc(C)ccc3NC(=O)CN2C(=O)c2ccc(Br)s2)c1`, the figures for the % of activity in [10] (at 1 µM) and in [10] (at 10 µM) were 99.7% and 103%, respectively.

Molecule `CCn1c(-c2nc3cc(C(=O)N4CCCC(N)C4)ccc3n2C)cc2ccccc21` (stereo not drawn) showed a pXC50 in experiment [11] below 4.8 M.
